# Laboratory results as given in patent US20090280112A1 (The Regents of the University of California, priority 2008, published 2009).
# Experiments:
# IGF-1 receptor mRNA = assay: IGF-1 receptor gene expression by quantitative PCR in LAPC-4 cells; format: cell-based, human; conditions: FIG. 6a
# Experimental: A large master mix of the above-mentioned components (minus the primers, probe and cDNA) was made for each experiment and aliquoted into individual tubes, one for each cDNA sample. cDNA was then added to the aliquoted master mix. The master mix with cDNA was aliquoted into a 384-well plate, with nine wells used for each cDNA sample. The primers and probes were mixed together and added to the master mix and cDNA in the 384-well plate. PCR was conducted on the ABI 7900HT (Applied Biosystems, CA) using the following cycle parameters: 1 cycle of 95° C. for 10 minutes, 40 cycles of 95° C. for 15 seconds, 60° C. for 1 minute. Analysis was carried out using the SDS software (version 2.3) supplied with the ABI 7900HT. The Ct values for each set of three reactions were averaged for all subsequent calculations. PCR primer and TaqMan probe sequences were either synthesized by Integrated DNA Technologies (Coralville, Iowa) or purchased from Applied Biosystems (Foster City, Calif.).
# IGF-1 receptor = IGF-1 receptor content in LAPC-4 cells (immunoprecipitation, western blot); format: cell-based, human
# Experimental: At the end of the incubation period, cells were washed twice with PBS and solubilized with lysis buffer (50 mM HEPES pH 7.6, 150 mM NaCl, 0.1% Triton X-100, 1 mM PMSF, 2 mM Na3VO4) for 1 hour at 4° C. […] The immunoprecipitated samples were run on SDS-PAGE, under reducing condition. Following transfer to nitrocellulose membrane, levels of IGF-1 receptor were assessed by western blot. Following an overnight incubation at 4° C., the membranes were washed 3 times with TBST and then incubated with HRP-conjugated anti-rabbit IgG diluted 1:50,000 in the same blocking buffer for 90 minutes at room temperature. After washing, blots were incubated with Super Signal (Pierce Chemicals, Rockford, Ill.), and exposed to film.
# [1] = system: LAPC-4 prostate cancer cells; assay: LAPC-4 prostate cancer cell growth (CyQuant or BCA cell proliferation assay); format: cell-based, human; conditions: for block of the effect of 1 nM DHT to stimulate proliferation: much smaller effects on non-androgen mediated growth
# Experimental: LAPC-4 prostate cancer cells were maintained at 37° C., 5% CO2 in phenol-free RPMI+10% FCS RPMI. Steroid free medium consisted of phenol-free RPMI supplemented with 10% dextran-coated, charcoal-treated serum (10% CDSS RPMI). LAPC-4 cells were incubated in this steroid-free 10% CDSS RPMI for 3 days prior to plating in 96 well plates (5×10^3 cells/well). […] The medium with androgens and inhibitors was refreshed on day 3. The plates were harvested on day 7 by inverting the microplate onto paper towels with gentle blotting to remove growth medium without disrupting adherent cells and freezing them at −80° C. for at least 30 minutes. LAPC-4 prostate cancer cell growth was determined using either the CyQuant cell proliferation assay (Molecular Probes, Eugene, Oreg.) or by the BCA assay (Pierce, Rockford, Ill.). Cell proliferation was calculated as the percent of content versus control cells at day 0.
# Each value shown is the mean+SD for triplicate determinations. In FIGS. 1a and 2b, cell proliferation was measured by BCA, and in FIG. 1c by the CyQuant method. In all future studies, the CyQuant method was employed to measure proliferation.
# insulin receptor (IR) = conditions: FIG. 5c
# Experimental: Level of insulin receptor was determined in 15 μg of total protein run on SDS-PAGE under reducing conditions, transferred to nitrocellulose membrane, and analyzed by probing with an anti-insulin receptor antibody CT-3, diluted 1:1000 in 1% milk, 1% BSA in TBST at 4° C. overnight. The secondary anti-mouse IgG, diluted 1:2000 in the same blocking buffer, was applied for 90 minutes at room temperature. Blots were incubated with SuperSignal, and exposed to film.
# LAPC-4 cells = assay: LAPC-4 growth in soft agar (anchorage independent growth), CyQuant; format: cell-based, human; conditions: 1 nM DHT, 6 days, FIG. 3b
# [2] = system: patients with both androgen-dependent and androgen-independent prostate cancer; conditions: Ryan et al. (2008), cited from earlier work
structure (smiles),measurement,setting,value
"C[C@]12CCC(=O)C[C@@H]1CC[C@@H]1[C@@H]2CC[C@]2(C)[C@@H](O)CC[C@@H]12 [DHT, dihydrotestosterone]",concentration that maximally increases IGF-1 receptor gene expression,IGF-1 receptor mRNA,0.1 nM
same,concentration at which a significant effect on IGF-1 receptor content was observed,IGF-1 receptor; FIG. 5b,0.1 nM
same,effect on content of the IGF-1 receptor,"IGF-1 receptor; western blot, FIG. 5a",markedly increased
same,affect to stimulate growth above control,"[1]; DHT at 10 nM, 7 days, 3 separate experiments, mean+SEM",83+8%
same,concentration at which a major effect on proliferation was observed,[1]; FIG. 1b,0.1 nM
same,change in content of insulin receptor (IR),insulin receptor (IR),no change
"C[C@H](Cc1ccc(O)c(O)c1)[C@@H](C)Cc1ccc(O)c(O)c1 [NDGA, Meso-nordihydroguaiaretic acid]",inhibition of the effect of DHT on growth in soft agar,LAPC-4 cells,inhibited anchorage independent growth
same,inhibition of the effect of DHT to increase expression of IGF-1 receptor,IGF-1 receptor mRNA; NDGA at 10 μM,completely inhibit
same,IC50,"IGF-1 receptor; read-out: effects to inhibit DHT-induced IGF-1 receptor content, 3 separate experiments, mean+SEM, FIG. 5e",11 µM
same,IC50,"[1]; Homo sapiens, LAPC4, 5 separate experiments, mean+SEM, read-out: half-maximal effect to inhibit androgen-stimulated growth",5 µM
same,clinical safety,[2],reasonable safety
same,effect on PSA,[2]; patients with non-castrate levels of testosterone and a rising PSA,modest declines in PSA
"COc1cc([C@@H]2c3cc4c(cc3[C@H](O)[C@H]3COC(=O)[C@@H]23)OCO4)cc(OC)c1OC [PPP, picropodophyllin]",block of the effect of 1 nM DHT to stimulate proliferation,[1],completely blocked
Nc1ncnc2c1c(-c1cccc(OCc3ccccc3)c1)cn2C1CC(CN2CCC2)C1 (centres unmarked) [NVP-AEW541],block of the effect of 1 nM DHT to stimulate proliferation,[1],completely blocked
